Measurements taken from patent US8466104B2, “Therapeutically active alpha MSH analogues” (AbbVie Inc., priority 2005, dated 2013).

Tests used:
[1] = system: neutrophil and eosinophil infiltration in BALF after LPS inhalation; test: Inhibition of neutrophil and eosinophil infiltration after LPS inhalation in rats (experimental setup 3); assay type: in vivo, rat; conditions: for number of eosinophils within the BALF / number of neutrophils within the BALF: 24 hours after LPS inhalation, 200 μg/kg bw iv bid; for effect on neutrophils within the BALF compared to a-MSH / reduction of eosinophils in the BALF / lungs: LPS inhalation
Protocol: Inhibition of Neutrophil and Eosinophil Infiltration after LPS Inhalation in Rats.
Male Sprague-Dawley rats (weight ˜200 g) from M&B A/S, DK-8680 Ry, Denmark, are used for all experiments. The rats are caged in standard cages type 3 and housed in a temperature- (22-24° C.) and moisture-controlled (40-70%) room with a 12 h light-dark cycle (light on from 6:00 A.M. to 6:00 P.M.). The diet is autoclaved Altromin 1324 special formulation, Produced by Altromin Denmark, Chr. Pedersen A/S, 4100 Ringsted, Denmark. Diet and water are administered ad libitum.
After acclimatization the rats are randomly allocated to the experimental groups and dosed i.v. with test compound at start of LPS-induction and once again 8 hours after LPS-induction.
Rats in groups of 3 are anaesthetized with 0.1 ml hypnorm/dormicum pr. 100 g and dosed i.v with the test compound. Immediately after dosing they are placed in the inhalation chamber where they are subjected to a nebulized LPS solution. The concentration of LPS is 1 mg/ml. Dosing time is 15 minutes. The rats are euthanized 24 hours after dosing with the test substance. At termination the rats are euthanized with CO2/O2. Then bronchoalveolar lavage is performed by installing and withdrawing 6×2.5 ml of PBS to the right lung. Lavage is done with the lungs remaining in the thorax after removing sternum and costae. The connection to the left lung is tied off during this procedure. Bronchoalveolar fluid (BALF) is centrifuged at 1000 rpm at 4° C. for 10 minutes. After removing the supernatant the cell pellet is resuspended in 0.5 ml PBS and total cell count performed. Two smears of BALF stained with May-Grüjwald Giemsa stain is made from each rat. BALF from each rat is subjected to total cell count and to differential count of leucocytes.
In addition to LPS infusion all rats are treated with bolus injections of either:
• a-MSH: 200 μg/kg/bw • a-MSH analogue: 200 μg/kg/bw
Data are presented as mean±S.E. Between group comparisons are performed by one way analysis of variance followed by Fishers Least Significant Difference test. Differences are considered significant at the 0.05 level.

[2] = system: LPS induced cytokine release and pulmonary hypertension in pigs; test: Inhibition of LPS induced cytokine release and pulmonary hypertension in pigs in vivo (experimental setup 4); parameters: species or system pig; conditions: 200 μg/kg single iv bolus
Protocol: Inhibition of LPS Induced Cytokine Release and Pulmonary Hypertension in Pigs in vivo.
Female Landrace pigs (˜30 kg) are fasted overnight but allowed free access to water. Then the pigs are premedicated with intramuscular ketamine (10 mg/kg) and midazolam (0.25 mg/kg). Anesthesia is induced with intravenous ketamine (5 mg/kg). The pigs are orally intubated, and anesthesia is maintained with a continuous intravenous infusion of fentanyl (60 μg/kg/h and midazolam (6 mg/kg/h). The animals are ventilated with a volume-controlled ventilator (Servo 900 ventilator; Siemens Elema, Solna, Sweden) with a positive end-expiratory pressure of 5 cm H2O. Tidal volume is kept at 10-15 ml/kg, and the respiratory rate adjusted (20-25 breaths/min) to maintain normocapnia (arterial carbon dioxide tension [PaCO2] in the range of 34-45 mmHg). Ventilation is performed with oxygen in air aimed tot reach an arterial oxygen tension (PaO2) higher than 105 mmHg. One arterial and 2 venous sheaths are placed in the carotid artery and corresponding veins for infusion, blood pressure measurements through fluid filled catheter, blood sampling and for introducing catheters.
Localization of the balloon-tipped catheter is determined by observing the characteristic pressure trace on the monitor as it is advance through the right side of the heart into the pulmonary artery as well as by x-ray. […]

Substance: Ac-Lys-Lys-Lys-Lys-Lys-Lys-Ser-Tyr-Ser-Nle-Glu-His-(D-Phe)-Arg-Trp-Gly-Lys-Pro-Val-NH2 (KKKKKKSYSXEHFRWGKPV; N-acetyl, Nle, D-Phe, C-amide) [a-MSH analogue #2]
- number of eosinophils within the BALF [1]: 34.0±8.6 ×10^5cells
- number of neutrophils within the BALF [1]: 9.1±2.4 ×10^5cells
- effect on neutrophils within the BALF compared to a-MSH [1]: much more pronounced inhibitory effects
- reduction of eosinophils in the BALF / lungs [1]: marked reduction of eosinophils
- effect on neutrophils within the BALF compared to a-MSH ([1]; listed as SEQ ID NO: 5*): markedly inhibited neutrophil infiltration to a much higher degree
- reduction of eosinophils in the BALF / lungs ([1]; listed as SEQ ID NO: 5*): significantly inhibits

Substance: Ser-Tyr-Ser-Met-Glu-His-Phe-Arg-Trp-Gly-Lys-Pro-Val [a-MSH, reference compound]
- number of eosinophils within the BALF [1]: 26.7±4.3 ×10^5cells
- number of neutrophils within the BALF [1]: 20.1±2.5 ×10^5cells
- reduction of eosinophils in the BALF / lungs [1]: marked reduction of eosinophils

Substance: Ac-Lys-Lys-Lys-Lys-Lys-Lys-Ser-Tyr-Ser-Met-Glu-His-Phe-Arg-Trp-Gly-Lys-Pro-Val-NH2 (Ac-KKKKKKSYSMEHFRWGKPV-NH2) [a-MSH analogue #1]
- number of eosinophils within the BALF [1]: 49.0±10.5 ×10^5cells
- effect on neutrophils within the BALF compared to a-MSH [1]: similar
- reduction of eosinophils in the BALF / lungs [1]: marked reduction of eosinophils
- reduction of eosinophils in the BALF / lungs ([1]; listed as SEQ ID NO:1*): significantly inhibits
- plasma concentrations of TNFa after LPS infusion [2]: marked reduction in plasma concentrations of TNFa
- maximal increase in pulmonary artery pressure (PAP) ([2]; LPS infusion): 8±2 mmHg
